≈ marks a conversion by molar mass, not a printed value. Counter-ions that a name gives are not always drawn. Like-named read-outs stand apart in the source and are kept apart here.
What was measured:
[1] = system: S. aureus 133; assay: Determination of the minimum inhibitory concentration (MIC), liquid dilution test; format: cell-based; conditions: Staphylococcus aureus
Experimental: (§1) The MIC was determined using the liquid dilution test. Overnight cultures of the test germs (S. aureus 133) in Isosensitest bouillon were diluted 1:1000 with foetal calf serum (FCS) or Isosensitest bouillon and incubated with dilutions of the test substances (successive dilutions of 1:2).
The cultures were incubated at 37° C. for 18-24 hours. In each case the lowest concentration of substance at which no visible bacterial growth took place, was defined as MIC.

[2] = Neutral Red vitality test using J774.A1 cells; format: cell-based, murine; conditions: mouse; J774.A1 murine macrophage cells, 72 hours with substance; vitality reduced to 50% of untreated control
Experimental: (§2) Compatibility tests of the exemplary compounds were carried out using cultures of eukaryotic cells. Hepatocytes (HepG2) and murine macrophage cells (J774.A1) were used as indicator for organ-specific toxicity. The murine macrophage cell line used is a particularly sensitive indicator for toxic effects.
(§3) In each case 1.2×10^4 cells were incubated at 37° C. for 24 hours. Test substances were added at different concentrations, and the cells were incubated for another 72 hours. The cells were then treated with 50 μl of Neutral Red solution (Sigma, No. N 2889) for 2 hours, washed with PBS medium and denaturated using an ethanol/glacial acetic acid mixture.
(§4) The cultures were measured in an Elisa reader at 540 nm and 630 nm. The IC50 values were extrapolated and indicate at which concentration the vitality of the cells, measured by the uptake of Neutral Red, is reduced to 50%, compared to untreated control cells.

[3] = system: α2-macroglobulin secretion of HepG2 cells; assay: Functionality of HepG2 cells: secretion of α2-macroglobulin (ELISA); format: cell-based; conditions: human, HepG2 liver cells, HepG2, 40-48 hours, highest test concentration 10 μg/ml
Experimental: (§5) The vitality and functionality of human HepG2 liver cells were examined after treatment with exemplary compounds. In each case 2×10^4−1×10^5 cells were incubated in RPMI 1640 (Whittacker) with 10% heat-inactivated foetal calf serum (Gibco) at 37° C. for 40-48 hours. The incubation volume of 200 μl contained the test substances in concentrations of 10, 2 and 0.4 μg/ml.
(§6) The functionality of the HepG2 cells was examined by measuring the secretion of apo B100 and α2-macroglobulin after treatment. To this end, the protein content of the culture supernatants was determined by ELISA after incubation for 40-48 hours. Apo B100 was bound using rabbit ahLDL (1 mg/ml) and quantified using peroxidase-conjugated monoclonal antibodies (ahLDL_POD), with addition of the substrate TMB/H2O2. The optical density was measured at 450 nm.
To determine α2-macroglobulin, the ELISA system from Biodesign (Art.No. H 45205M) was used. Quantification was likewise carried out using the substrate TMB/H2O2, and measuring the optical density at 450 nm.

[4] = system: apo B100 secretion of HepG2 cells; assay: Functionality of HepG2 cells: secretion of apo B100 (ELISA); format: cell-based; conditions: human, HepG2 liver cells, HepG2, 40-48 hours, highest test concentration 10 μg/ml
Experimental: as §5, §6

[5] = Vitality of HepG2 cells (Alamar Blue fluorescence); format: cell-based; conditions: human, HepG2 liver cells, HepG2, 40-48 hours, highest test concentration 10 μg/ml
Experimental: as §5
The vitality was examined after addition of 20 μl Alamar Blue (Biosource, Art. No. DAL 1100) by measuring the fluorescence (excitation: 544 nm, emission: 590 nm).

[6] = system: J774.A1 cells; assay: Neutral Red vitality test using J774.A1 cells; format: cell-based, murine; conditions: compatibility tests with eukaryotic cells: hepatocytes (HepG2) and murine macrophage cells (J774.A1)
Experimental: as §2, §3, §4

[7] = Acute toxicity in mice (LD50); conditions: mouse, in vivo, ip, intraperitoneal administration, dose at which 50% of treated mice survive
Experimental: The acute toxicity of the substances was determined by determining the dose at which 50% of the treated mice survive (=LD50). Following intraperitoneal administration of the test substances, the LD50 for TAN 1057 A,B was 100 mg/kg. The LD50 for the compound of Example 4 was >400 mg/kg.

[8] = system: S. aureus 133; assay: Test of antibacterial activity in vivo (infected mice, survival); conditions: mice infected i.p. with 1×10^6 S. aureus 133 in 5% mucine; intravenous administration 30 minutes after infection
Experimental: Mice were infected with 1×10^6 bacteria of the strain S. aureus 133 in 5% mucine (i.p.) and treated by intravenous administration of the test substances 30 minutes after the infection. Without treatment, all infected animals died. The therapeutic doses for TAN 1057 A,B and the compound of Example 4 at which all infected animals survived (=ED100) was 1 mg/kg for both substances.

[9] = system: TAN 1057 A,B-resistant S. aureus 133; assay: MIC test with TAN 1057 A,B-resistant isolates from stepwise selection; format: cell-based; conditions: Staphylococcus aureus
Experimental: as §1
Bacteria of the strain S. aureus 133 were incubated with different concentrations of TAN 1057 A,B for 24 hours. […] This process was repeated for several days, selecting step by step bacteria having increased resistance to TAN 1057 A,B. The MIC of highly resistant S. aureus 133 bacteria was >100 μg/ml (initial MIC: <0.1 μg/ml). The bacteria from this selection series, having an MIC of <0.1, 0.8, 25, 100 and >100 μg/ml, were used for tests. It is thus possible to identify TAN 1057 A,B derivatives having antibacterial activity against TAN 1057 A,B-resistant cells.
The S. aureus 133 isolates with medium and high resistance to TAN 1057 A,B were tested in comparison to the derivatives of the invention.

[10] = S. aureus 133, overnight culture diluted 1:1000 with foetal calf serum, 37° C., 18-24 hours, lowest concentration without visible growth, read-out: MIC in FCS (S.aureus; μg/ml)
[11] = read-out: MIC, isolate with medium resistance to TAN 1057 A,B

Row | MIC [1, 10] [µg/mL] | IC50 at 72 h [2] [µg/mL] | Compound | other results
1 | 12.5 |  | NCCC[C@H](N)CC(=O)NC1CNC(NC(N)=O)=NC1=O (stereo partly drawn) [Example 14, (3′R,5R,S)-5-[N-(3′,6′-Diaminohexanoyl)amino]-5,6-dihydro-2-ureido-4(1H)-pyrimidone Dihydrochloride] | 
2 | 1.6 | 1.8 | CN(C(=O)C[C@@H](N)CCN)C1CNC(NC(N)=O)=NC1=O (stereo partly drawn) [Example 8, (3′S,5R,S)-5-[N-Methyl-N-(3′,5′-diaminopentanoyl)amino]-5,6-dihydro-2-ureido-4(1H)-pyrimidone Dihydrochloride] | 
3 | 3.2 |  | CCN(C(=O)C[C@@H](N)CCCN)C1CNC(NC(N)=O)=NC1=O (stereo partly drawn) [Example 10, (3′S,5R,S)-5-[N-Ethyl-N-(3′,6′-diaminohexanoyl)amino]-5,6-dihydro-2-ureido-4(1H)-pyrimidone Dihydrochloride] | 
4 | 12.5 |  | CN(C(=O)CC(N)CCC#N)C1CNC(NC(N)=O)=NC1=O.Cl [Example 18, (3′R,S,5R,S)-5-[N-Methyl-N-(3′-amino-5′-cyanopentanoyl)amino]-5,6-dihydro-2-ureido-4(1H)-pyrimidone Hydrochloride] | 
5 | 0.2 | 3 | CN(C(=O)C[C@@H](N)CCCCNC(=N)N)C1CNC(NC(N)=O)=NC1=O (stereo partly drawn) [Example 1, (3′S,5R,S)-5-[N-Methyl-N-(3′-amino-7′-guanidinoheptanoyl)amino]-5,6-dihydro-2-ureido-4(1H)-pyrimidone Dihydrochloride] | IC50 [3]: > 10 µg/mL; IC50 [4]: > 10 µg/mL; IC50 [5]: > 10 µg/mL
6 | 50 | 6 | CN(C(=O)CC(N)c1cccc(NC(=N)N)c1)C1CNC(NC(N)=O)=NC1=O (stereo not drawn) [Example 2, (3′RS,5RS)-5-{N-Methyl-N-[3′-amino-3′-(3-guanidylphenyl)propionyl]amino}-5,6-dihydro-2-ureido-4(1H)-pyrimidone Dihydrochloride] | IC50 [3]: > 10 µg/mL; IC50 [4]: > 10 µg/mL; IC50 [5]: > 10 µg/mL
7 | 0.8 | 50 | CCNCCC[C@H](N)CC(=O)N(C)C1CNC(NC(N)=O)=NC1=O (stereo partly drawn) [Example 7, (3′S,5R,S)-5-[N-Methyl-N-(3′-amino-6′-ethylaminohexanoyl)amino]-5,6-dihydro-2-ureido-4(1H)-pyrimidone Dihydrochloride] | 
8 | 100 |  | COC(=O)NCCC[C@H](N)CC(=O)N(C)C1CNC(NC(N)=O)=NC1=O.Cl (stereo partly drawn) [Example 16, (3′S,5R,S)-5-[N-Methyl-N-(3′-amino-6′-methoxycarbonylaminohexanoyl)-amino]-5,6-dihydro-2-ureido-4(1H)-pyrimidone Hydrochloride] | 
9 | 100 | 40 | CN(C(=O)C[C@@]1(N)C[C@H]1CCNC(=N)N)C1CNC(NC(N)=O)=NC1=O (stereo partly drawn) [Example 3, 5-{N-Methyl-N-2′-[1-amino-2-(2-guanidinoethyl)cyclopropyl]acetamino}-5,6-dihydro-2-ureido-4(1H)-pyrimidone Dihydrochloride] | 
10 | 6.3 |  | CN(C(=O)CC(N)CCCCCN)C1CNC(NC(N)=O)=NC1=O [Example 17, (3′R,S,5R,S)-5-[N-Methyl-N-(3′,8′-diaminooctanoyl)amino]-5,6-dihydro-2-ureido-4(1H)-pyrimidone Dihydrochloride] | 
11 | 100 |  | CCN(C(=O)C[C@@H](N)CCCNC(=N)N)C1CNC(NC(N)=O)=NC1=O (stereo partly drawn) [Example 15, (3′S,5R,S)-5-[N-Ethyl-N-(3′-amino-6′-guanidinohexanoyl)amino]-5,6-dihydro-2-ureido-4(1H)-pyrimidone Dihydrochloride] | 
12 | 0.8 | 5.5 | CNC(=N)NCCC[C@H](N)CC(=O)N(C)C1CNC(NC(N)=O)=NC1=O (stereo partly drawn) [Example 6, (3′S,5R,S)-5-{N-Methyl-N-[3′-amino-6′-(N′-methylguanidino)hexanoyl]amino}-5,6-dihydro-2-ureido-4(1H)-pyrinidone Dihydrochloride] | 
13 | 0.1 | 6 | CN(C(=O)C[C@@H](N)CCCCN)C1CNC(NC(N)=O)=NC1=O (stereo partly drawn) [Example 5, (3′S,5R,S)-5-[N-Methyl-N-(3′,7′-diaminoheptanoyl)amino]-5,6-dihydro-2-ureido-4(1H)-pyrimidone Dihydrochloride] | 
14 | 12.5 |  | CN(C(=O)C[C@@H](N)CCC(N)=O)C1CNC(NC(N)=O)=NC1=O.Cl (stereo partly drawn) [Example 13, (3′R,5R,S)-5-[N-Methyl-N-(3′-amino-5′-carbamoyl-pentanoyl)amino]-5,6-dihydro-2-ureido-4(1H)-pyrimidone Dihydrochloride] | 
15 | 1.6 |  | N=C(N)NCCC[C@H](N)CC(=O)NC1CNC(NC(N)=O)=NC1=O (stereo partly drawn) [Example 9, (3′R,5R,S)-5-[N-(3′-amino-6′-guanidinohexanoyl)amino]-5,6-dihydro-2-ureido-4(1H)-pyrimidone Dihydrochloride] | 
16 | 6.3 |  | CN(C(=O)C[C@H](N)CCCN)C1CNC(NC(N)=O)=NC1=O (stereo partly drawn) [Example 12, (3′R,5R,S)-5-[N-Methyl-N-(3′,6′-diaminohexanoyl)amino]-5,6-dihydro-2-ureido-4(1H)-pyrimidone Dihydrochloride] | 
17 | 3.2 |  | CN(C(=O)CC[C@@H](N)CCCN)C1CNC(NC(N)=O)=NC1=O (stereo partly drawn) [Example 11, (4′S,5R,S)-5-[N-Methyl-N-(4′,7′-diaminoheptanoyl)amino]-5,6-dihydro-2-ureido-4(1H)-pyrimidone Dihydrochloride] | 
18 |  |  | CCN(C(=O)C[C@@H](N)CCCNC(=N)N)C1CNC(NC(N)=O)=NC1=O (stereo partly drawn) (as salt: hydrochloride) [Example 15, (3′S,5R,S)-5-[N-Ethyl-N-(3′-amino-6′-guanidinohexanoyl)amino]-5,6-dihydro-2-ureido-4(1H)-pyrimidone Dihydrochloride] | melting point: 170 to 172 °C

Row | Compound | MIC [1, 10] [µg/mL] | IC50 at 72 h [2] [µg/mL] | other results
19 | CN(C(=O)C[C@@H](N)CNC(=N)N)C1CNC(NC(N)=O)=NC1=O (stereo partly drawn) [TAN 1057 A,B, reference compound] | 0.1 (≈ 0.305 µM) | 0.25 (≈ 0.764 µM) | MIC ([1]; S. aureus 133 before selection with TAN 1057 A,B, read-out: initial MIC): < 0.1 µg/mL; IC50 [3]: 7 µg/mL (≈ 21.4 µM); toxicity (in words) [6]: pronounced toxicity in the liver and cells of the immune system; LD50 [7]: 100 mg/kg; ED100 (therapeutic dose at which all infected animals survived) [8]: 1 mg/kg; MIC ([9]; read-out: MIC of highly resistant S. aureus 133 bacteria): > 100 µg/mL; MIC [9, 11]: 0.8 µg/mL (≈ 2.44 µM)
20 | CN(C(=O)C[C@@H](N)CCCN)C1CNC(NC(N)=O)=NC1=O (stereo partly drawn) [Example 4, (3′S,5R,S)-5-[N-Methyl-N-(3′,6′-diaminohexanoyl)amino]-5,6-dihydro-2-ureido-4(1H)-pyrimidone Dihydrochloride] | 0.4 | 25 | LD50 [7]: > 400 mg/kg; ED100 (therapeutic dose at which all infected animals survived) [8]: 1 mg/kg; MIC [9, 11]: 0.2 µg/mL
